This is an account of results in paper PMC9820082, “Synthesis of 9-Hydroxy-1H-Benzo[f]chromene Derivatives with Effective Cytotoxic Activity on MCF7/ADR, P-Glycoprotein Inhibitors, Cell Cycle Arrest and Apoptosis Effects” (International Journal of Molecular Sciences, 2022).

The test system of this test is MCF-7/ADR cells. Kind of test: Annexin V/PI double staining flow cytometric apoptosis test. Type of test: cell-based, human. Particulars: IC50 value, 24 h. The source says: One of the optional mechanisms regarding the lethal action of chemotherapeutic medicines is blocking cell cycle progression, triggering apoptosis with otherwise mutual effect. […] The pivotal relation of the newly synthesized MCF-7/ADR “anticancer drugs” was further evaluated using the Annexin V/PI double staining flow cytometric test. […] In comparison to Doxorubicin’s 30% total apoptosis rate, which was nearly identical to 4a, 4c and 4g, compounds 4d, 4e and 4i were leading with percentages of 41%, 31% and 38%, respectively. Only compounds 4a (8.5%) and 4g (11%) had greater effects on necrosis compared to doxorubicin (5%). Other examined substances caused both early and late apoptosis in all treated cells (Figure 7b). Therefore, MCF-7/ADR cytotoxicity is induced by apoptotic processes, apparently without negative effects on P-gp.
(a) The dot plot of the Annexin V/PI-stained cells, treated with the indicated drugs. […] The data are expressed as the mean ± SD of three independent experiments in triplicate. Significances are shown in comparison to control cells (* p < 0.001). TEXT PRINTED IN THE PICTURE: (a) DOX.: 3.33%; 18.41%; 7.85% | (a) 4a: 8.66%; 18.17%; 4.24% | (a) 4c: 2.74%; 12.73%; 9.11% | (a) 4d: 4.85%; 27.44%; 8.73% | (a) 4e: 5.77%; 9.92%; 15.92% | (a) 4g: 11.04%; 3.94%; 7.38% | (a) 4i: 5.54%; 12.87%; 19.61% DOUBTS OF THE COPYIST ABOUT THIS PICTURE: The quadrant percentages in panel (a) are printed very small and blurred, so 3, 5, 6, 8 and 9 cannot be told apart with certainty. […] They are told apart only by their quadrant in the PI / Annexin V-FITC plot, and are listed upper left, upper right, lower right. / The sample line in each plot reads MCF7/ADR. In the 4g plot it is cut off as 'MCF7/AI'. / The panel 'Cont.' (untreated control: 1.56%, 0.15%, 0.48%) is left out because it is not a substance.
For orientation: In flow cytometry, cells or beads pass a laser one at a time.

`N#CC1=C(N)Oc2ccc3ccc(O)cc3c2C1c1ccc(Cl)c(Cl)c1` (centres unmarked) [4g, 3-Amino-1-(3,4-Dichlorophenyl)-9-Hydroxy-1H-Benzo[f]chromene-2-Carbonitrile] showed a necrosis of 11%.

For `N#CC1=C(N)Oc2ccc3ccc(O)cc3c2C1c1ccc(Cl)cc1Cl` (centres unmarked) [4d, 3-Amino-1-(2,4-Dichlorophenyl)-9-Hydroxy-1H-Benzo[f]chromene-2-Carbonitrile], the total apoptosis rate was determined as 41%.

In turn, `N#CC1=C(N)Oc2ccc3ccc(O)cc3c2C1c1cc(Br)cc(Br)c1` (centres unmarked) [4i, 3-Amino-1-(3,5-Dibromophenyl)-9-Hydroxy-1H-Benzo[f]chromene-2-Carbonitrile] registered a total apoptosis rate of 38%. Compound `N#CC1=C(N)Oc2ccc3ccc(O)cc3c2C1c1ccc(F)cc1F` (centres unmarked) [4a, 3-Amino-1-(2,4-Difluorophenyl)-9-Hydroxy-1H-Benzo[f]chromene-2-Carbonitrile] gave a necrosis of 8.5%. Compound `N#CC1=C(N)Oc2ccc3ccc(O)cc3c2C1c1cc(Cl)ccc1Cl` (centres unmarked) [4e, 3-Amino-1-(2,5-Dichlorophenyl)-9-Hydroxy-1H-Benzo[f]chromene-2-Carbonitrile] yielded a total apoptosis rate of 31%.
